In patent publication US20180369268A1, “METHODS FOR IDENTIFYING INHIBITORS OF "STIMULATOR OF INTERFERON GENE"- DEPENDENT INTERFERON PRODUCTION” (ADURO BIOTECH, INC., priority 2015, published 2018):
Like-named read-outs stand apart in the source and are kept apart here.

Target: T1, hSTING HAQ allele (Homo sapiens, UniProt Q86WV6, G230A/H232R/R293Q)
T1 construct: DNA encoding amino acids 140-379 (amino acid numbering corresponding to Swiss Prot Q86WV6); 6xHIS-SUMO (with TEV site) (N, cleaved yes); made in house; host or cells: Rosetta2 (DE3) E. coli
T1 sequence (Q86WV6 140-379 G230A/H232R/R293Q): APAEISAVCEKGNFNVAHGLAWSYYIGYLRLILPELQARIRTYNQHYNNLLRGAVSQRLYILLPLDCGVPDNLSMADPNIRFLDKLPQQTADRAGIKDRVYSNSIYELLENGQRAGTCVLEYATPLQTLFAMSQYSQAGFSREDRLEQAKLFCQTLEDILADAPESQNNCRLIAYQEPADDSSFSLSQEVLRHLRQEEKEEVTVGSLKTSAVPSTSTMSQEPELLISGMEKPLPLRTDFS
Assay: Differential scanning fluorometry (DSF) Tm shift with purified STING AA140-379
Format: binding
Settings: read-out: hSTING Tm Shift HAQ
From the text: DNA encoding amino acids 140-379 (amino acid numbering corresponding to Swiss Prot Q86WV6) was amplified from plasmids containing the full length sequence of human STING alleles via polymerase chain reaction with the following primers: forward […] (SEQ ID NO: 9) and reverse […] (SEQ ID NO: 10). STING variant alleles were assigned according to Yi, et al, (2013), PLoS One, 8(10), e77846 (DOI: 10.1371/journal.pone.0077846. PCR products were cloned into bacterial expression vector encoding a N-terminal hexa-histidine affinity tag (6×HIS) followed by a small ubiquitin-like modifier (SUMO) solubility sequence (Butt, et al, (2005) Protein expression and purification 43.1, 1-9) and tobacco etch virus protease cleavage site (TEV) using ligation independent cloning (Aslanidis, et al, (1990) Nucleic acids research, 18.20, 6069-6074).
Plasmids encoding 6×HIS-SUMO-TEV-STING amino acids 140-379 were transformed into Rosetta2 (DE3) E. coli cells (EMD Millipore) for protein expression. Cells were grown in lysogeny broth at 37° C. until a […] absorbance of 0.6 was reached. Cells were then transferred to 18° C. and protein expression was induced overnight by the addition of isopropyl β-D-1-thiogalactopyranoside to the media at a concentration of 0.25 mM. Cells were harvested by centrifugation at 6,000 times gravity for 10 minutes. Cell pellets were re-suspended on ice in a buffer containing 50 mM Tris hydrochloride (Tris-HCl) pH 7.5, 500 mM sodium chloride (NaCl), 20 mM imidazole, 10% glycerol, 1 mM tris(2-carboxyethyl)phosphine hydrochloride (TCEP) and protease inhibitor tablet (Pierce) (Buffer A). Cells were lysed using an S-450D sonifier (Emmerson industrial) on ice. Cell lysate was centrifuged at 15,000 times gravity for 30 minutes at 4° C. Soluble material was applied to nickel-nitrilotriacetic acid (Ni-NTA) coupled Sepharose CL-6B (Qiagen) for 1 hour with gentle rocking at 4° C. After transfer to a gravity flow poly-prep column (Bio-Rad), resin was washed extensively in buffer A. Protein was eluted from the column in a buffer containing 20 mM Tris-HCl pH 7.5, 150 mM NaCl, 300 mM imidazole, 10% glycerol and 0.5 mM TCEP. To remove the 6×HIS-SUMO tag eluted protein was mixed with TEV protease (Sigma) at a ratio of 1:250 (w:w) and dialyzed overnight against a buffer containing 20 mM Tris-HCl pH 7.5, 150 mM NaCl, 5 mM imidazole, 10% glycerol and 0.5 mM TCEP. TEV protease and 6×HIS-SUMO tags were depleted by the addition of Ni-NTA resin (Qiagen) to the sample, purified STING amino acids 140-379 was collected by removal of the resin using a poly-prep column STING AA140-379 was concentrated with a 10,000 Dalton molecular weight cutoff centrifuge concentrator (EMD Millipore) to a final concentration of approximately 10 mg/ml. Protein was aliquoted, flash frozen in liquid nitrogen and stored at −80° C. until use.
Differential scanning fluorometry (DSF) is a technique that measures the ability of ligands to bind to and stabilize purified proteins (Niesen, et al, (2007) Nature protocols 2.9, 2212-2221). The protein is heated in the presence of a dye that binds to and fluoresces in hydrophobic environments. The protein is thermally denatured by heating resulting in increased dye binding to the unfolded protein and fluorescence. The temperature midpoint (Tm) of a proteins denaturation is established by calculating the half maximal value of the denaturation curve. The temperature midpoint of the protein in the presence of a ligand is directly related to the affinity of the ligand for the protein and therefore its ability to stabilize the protein at higher temperatures.
DSF was performed in a 20 μL reaction comprising 20 mM Tris-HCl pH 7.5, 150 mM NaCl, 1:500 dilution of SYPRO Orange (Life Technologies), 1 mg/ml purified STING AA140-379 protein and ligand at a concentration of 1 mM. Wild type hSTING, HAQ allele hSTING and/or REF allele hSTING were used with scaffold molecules of the invention as listed in Table 2.

[1] = DSF, ligand 1 mM, 1 mg/ml STING AA140-379

Compound	ΔTm at 1000 µM	ΔTm at 1000 µM [1]
CC(C)(C)[Si](C)(C)O[C@H]1[C@H]2O[P@@](=O)(S)OC[C@H]3O[C@@H](n4cnc5c(N)ncnc54)[C@H](F)[C@@H]3O[P@](=O)(S)OC[C@H]1O[C@H]2n1cnc2c(N)ncnc21 [Compound 6a, dithio-[SP, RP]-cyclic-[3′OTBS-A(2′,5′)p-2′F-A(3′,5′)p]]	20.2 °C	
Nc1nc(N)c2ncn([C@@H]3O[C@@H]4CO[P@@](=O)(S)O[C@H]5[C@@H](O)[C@H](n6cnc7c(N)nc(N)nc76)O[C@@H]5CO[P@@](=O)(S)O[C@H]4[C@H]3O)c2n1 [Compound 23, (2R,3R,3aS,5R,7aR,9R,10R,10aS,12R,14aR)-2,9-bis(2,6-diamino-9H-purin-9-yl)-3,10-dihydroxy-5,12-dimercaptooctahydro-2H,7H-difuro[3,2-d:3′,2′-j][1,3,7,9]tetraoxa[2,8]diphosphacyclododecine 5,12-dioxide]		15.1 °C
Nc1nc(N)c2ncn([C@@H]3O[C@@H]4CO[P@@](=O)(S)O[C@H]5[C@@H](O)[C@H](n6cnc7c(N)nc(N)nc76)O[C@@H]5CO[P@](=O)(S)O[C@H]4[C@H]3O)c2n1 [Compound 23a, (2R,3R,3aS,5R,7aR,9R,10R,10aS,12S,14aR)-2,9-bis(2,6-diamino-9H-purin-9-yl)-3,10-dihydroxy-5,12-dimercaptooctahydro-2H,7H-difuro[3,2-d:3′,2′-j][1,3,7,9]tetraoxa[2,8]diphosphacyclododecine 5,12-dioxide]		6.3 °C
CC(C)C(=O)Nc1nc2c(ncn2[C@@H]2O[C@@H]3CO[P@@](=O)(S)O[C@H]4[C@@H](F)[C@H](n5cnc6c(=O)[nH]c(NC(=O)C(C)C)nc65)O[C@@H]4CO[P@@](=O)(S)O[C@H]3[C@H]2F)c(=O)[nH]1 [Compound 32, N,N′-(((2R,3R,3aR,5R,7aR,9R,10R,10aR,12R,14aR)-3,10-difluoro-5,12-dimercapto-5,12-dioxidooctahydro-2H, 7H-difuro[3,2-d:3′,2′-j][1,3,7,9]tetraoxa[2,8]diphosphacyclododecine-2,9-diyl)bis(6-oxo-6,9-dihydro-1H-purine-9,2-diyl))bis(2-methylpropanamide)]		11.5 °C
Nc1ccn([C@@H]2O[C@@H]3CO[P@@](=O)(S)O[C@H]4[C@@H](F)[C@H](n5cnc6c(N)ncnc65)O[C@@H]4CO[P@@](=O)(S)O[C@H]3[C@H]2F)c(=O)n1 [Compound 37, 4-amino-1-((2R,3R,3aR,5R,7aR,9R,10R,10aR,12R,14aR)-9-(6-amino-9H-purin-9-yl) 3,10-difluoro-5,12-dimercapto 5,12-dioxidooctahydro-2H,7H-difuro[3,2-d:3′,2′-j][1,3,7,9]tetraoxa[2,8]diphosphacyclododecin-2-yl)pyrimidin-2(1H)-one]		10.3 °C
Nc1ccn([C@@H]2O[C@@H]3CO[P@](=O)(S)O[C@H]4[C@@H](F)[C@H](n5cnc6c(N)ncnc65)O[C@@H]4CO[P@@](=O)(S)O[C@H]3[C@H]2F)c(=O)n1 [Compound 37a, 4-amino-1-((2R,3R,3aR,5R,7aR,9R,10R, 10aR,12S,14aR)-9-(6-amino-9H-purin-9-yl)-3,10-difluoro-5,12-dimercapto-5,12-dioxidooctahydro-2H,7H-difuro[3,2-d: 3′,2′-j][1,3,7,9]tetraoxa[2,8]diphosphacyclododecin-2-yl)pyrimidin-2(1H)-one]		6.4 °C
CC(C)C(=O)Nc1nc2c(ncn2[C@@H]2O[C@@H]3CO[P@@](=O)(S)O[C@@H]4[C@H](O)[C@@H](CO[P@@](=O)(S)O[C@H]3[C@H]2O)O[C@H]4n2cnc3c(NC(=O)c4ccccc4)ncnc32)c(=O)[nH]1 [Compound 42, dithio-[RP, RP]-cyclic-[ibG(3′,5′)p-BzA(2′,5′)p]]		7.6 °C
Nc1nc2c(ncn2[C@@H]2O[C@@H]3CO[P@](=O)(S)O[C@@H]4[C@H](O)[C@@H](CO[P@](=O)(S)O[C@H]3[C@H]2O)O[C@H]4n2cnc3c(N)ncnc32)c(=O)[nH]1 [Compound 43]		10.5 °C
Nc1ncnc2c1ncn2[C@H]1O[C@H]2CO[P@](=O)(S)O[C@@H]3[C@H](O)[C@@H](n4cnc5c(N)ncnc54)O[C@H]3CO[P@](=O)(S)O[C@@H]2[C@@H]1O [Compound 48, (2S,3S,3aR,5S,7aS,9S,10S,10aR,12S,14aS)-2,9-bis(6-amino-9H-purin-9-yl)-3,10-dihydroxy-5,12-dimercaptooctahydro-2H,7H-difuro[3,2-d:3′,2′-j][1,3,7,9]tetraoxa[2,8]diphosphacyclododecine 5,12-dioxide]		2.3 °C
Nc1ncnc2c1ncn2[C@H]1O[C@H]2CO[P@@](=O)(S)O[C@@H]3[C@H](O)[C@@H](n4cnc5c(N)ncnc54)O[C@H]3CO[P@](=O)(S)O[C@@H]2[C@@H]1O [Compound 48a, Triethylammonium (2S,3S,3aR,5R,7aS,9S,10S,10aR,12S,14aS)-2,9-bis(6-amino-9H-purin-9-yl)-3,10-dihydroxyoctahydro-2H, 7H-difuro[3,2-d: 3′,2′-j][1,3,7,9]tetraoxa[2,8]diphosphacyclododecine-5,12-bis(thiolate) 5,12-dioxide]		6.6 °C
Nc1ncnc2c1ncn2[C@H]1O[C@H]2CO[P@@](=O)(S)O[C@@H]3[C@H](O)[C@@H](n4cnc5c(N)ncnc54)O[C@H]3CO[P@@](=O)(S)O[C@@H]2[C@@H]1O [Compound 48b, triethylammonium (2S,3S,3R,5R,7aS,9S,10S,10aR,12R,14aS)-2,9-bis(6-amino-9H-purin-9-yl)-3,10-dihydroxyoctahydro-2H,7H-difuro[3,2-d: 3′,2′-j][1,3,7,9]tetraoxa[2,8]diphosphacyclododecine-5,12-bis(thiolate) 5,12-dioxide]		3.5 °C
C#CCOc1nc(N)nc2c1ncn2[C@@H]1O[C@@H]2COP(=O)(O)O[C@H]3[C@@H](O)[C@H](n4cnc5c(=O)[nH]c(N)nc54)O[C@@H]3COP(=O)(O)O[C@H]2[C@H]1O [compound 25, 2-amino-9-((2R,3R,3aS,7aR,9R,10R,10aS,14aR)-9-(2-amino-6-(prop-2-yn-1-yloxy)-9H-purin-9-yl)-3,5,10,12-tetrahydroxy-5,12-dioxidooctahydro-2H,7H-difuro[3,2-d:3′,2′-j][1,3,7,9]tetraoxa[2,8]diphosphacyclododecin-2-yl)-1,9-dihydro-6H-purin-6-one]		7.2 °C
